Measurements: US20110191867A1

What was measured:
[1] = tested on: serum antibodies of test subjects
[2] = tested on: serum antibodies of test subjects; conditions: serum of 8 persons

| Substance | comparison of the cyclic and linear peptide, reactivity with sera [1] | reaction with serum of test subject [1] | reactivity with sera of test subjects [1] | immune responses of serum antibodies against the peptides [2] |
| --- | --- | --- | --- | --- |
| Biotin-aminocaproyl-RPKVRDQ [Peptide 3C] | more reactive with low signals with other subjects | higher reaction | Strong responses were observed from the serum of test subjects S5B |  |
| Biotin-aminocaproyl-SRPRVRNIP [Peptide 2B] |  | high reaction | much weaker reactions | especially effective in binding with certain antibodies |
